US9828375B2, “4-position substituted pyrazolopyrimidine derivative, and use thereof in drug preparation” (Guangxi Wuzhou Pharmaceuticals (Group) Co., Ltd., priority 2012, dated 2017)

Legend:
[1] = test system: human leukemia cell line K562; experiment: In vitro tumor cell proliferation inhibition (MTT): K562; assay type: cell-based
Description: (§1) The purpose of the experiment was to test the inhibition activity of the compounds of the invention for in vitro human tumor cell proliferation by the methyl thiazolyl tetrazolium (MTT) colorimetry.
(§2) Main reagents: RPMI-1640, fetal bovine serum, pancreatin, etc. were purchased from Gibco BRL Company (Invitrogen Corporation, USA) and IMDM medium that was purchased from American Type Culture Collection (ATCC). Methyl thiazolyl tetrazolium (MTT) and dimethyl sulfoxide (DMSO) were products from Sigma Company (USA). Pyrazolopyrimidine derivatives were composed by the inventor. During in vitro experiment, 100% DMSO was prepared into 10 mM storage solution, the solution was stored in a refrigerator at −20° C. for future use, and was diluted to the required concentration with complete culture solution before use.
(§3) Cell line and culture: Human leukemia cell line MV4-11, Jurkat, K562, human thyrophyma cell line TT, human gastric carcinoma cell line MKN-45, human malignant melanoma cell lines A375 and A875, human pancreatic carcinoma cell line panc-1, human cervical carcinoma cell line HELA, human colorectal carcinoma cell line HCT116, etc. were purchased from American type culture collection and were preserved by this laboratory. All leukemia cell lines (except MV4-11), gastric carcinoma cell lines and thyrophyma cell lines were cultured in RPMI-1640 complete medium containing 10% fetal bovine serum, 100 U/mL penicillin and 100 μg/mL streptomycin at 37° C. in 5% CO2. The remaining cell lines were cultured in DMEM complete medium containing 10% fetal bovine serum (containing 20% MV4-11 cell), 100 U/mL penicillin and 100 µg/mL streptomycin at 37° C. in 5% CO2.
(§4) Cell suspension with cell concentration of 1-2×10^4/mL was adjusted with the complete cell medium and inoculated in a 96-well plate, with each well filled with 200 μl cell suspension that was cultured overnight. On the next day, supernatant was sucked and abandoned (supernatant was sucked upon centrifugation of suspension cells), and then cells were processed with test compounds at gradient concentrations respectively. Meanwhile, a negative control group free from drug and a solvent control group with equal volume were set, and the DMSO concentration was 0.1%. Each dose group was provided with three wells and cultured at 37° C. in 5% CO2. After 72 hours, 20 μl 5 mg/mL MTT reagent was added to each well, and cultured for another 2 to 4 hours, the supernatant was abandoned; 150 μL DMSO was added to each well again, vibrated and mixed evenly for 15 minutes; the absorbance (A) values (proportional to living cell amount) were determined with a microplate reader (λ=570 nm) and averaged. […] Experiment was repeated for 3 times at least. Experimental data were expressed with means, data statistics were tested by t, and P<0.05 means that difference has a statistical significance. The cell proliferation inhibition effects of all compounds as follows are expressed by IC50 or inhibition rate.

[2] = test system: human cervical carcinoma cell line HELA; experiment: In vitro tumor cell proliferation inhibition (MTT): HELA; assay type: cell-based; details: 72 hours
Description: as §1, §2, §3, §4

[3] = test system: human leukemia cell line MV4-11; experiment: In vitro tumor cell proliferation inhibition (MTT): MV4-11; assay type: cell-based
Description: as §1, §2, §3, §4

[4] = test system: human thyrophyma cell line TT; experiment: In vitro tumor cell proliferation inhibition (MTT): TT; assay type: cell-based
Description: as §1, §2, §3, §4

PDGFRα = PDGFRα (Homo sapiens, UniProt P16234); experiment: Kinase inhibition activity test, isotope labeling: PDGFRα; assay type: biochemical; details: for inhibition at 10 µM / Activity inhibition rate PDGFRα (h): test compound at a concentration of 10 μM; for inhibition at 10 µM: read-out: Activity inhibition rate PDGFRα (h); for IC50: ATP 120 μM, read-out: PDGFRα IC50 value (inhibitory activity value)
PDGFRα, sequence (P16234 24-1089): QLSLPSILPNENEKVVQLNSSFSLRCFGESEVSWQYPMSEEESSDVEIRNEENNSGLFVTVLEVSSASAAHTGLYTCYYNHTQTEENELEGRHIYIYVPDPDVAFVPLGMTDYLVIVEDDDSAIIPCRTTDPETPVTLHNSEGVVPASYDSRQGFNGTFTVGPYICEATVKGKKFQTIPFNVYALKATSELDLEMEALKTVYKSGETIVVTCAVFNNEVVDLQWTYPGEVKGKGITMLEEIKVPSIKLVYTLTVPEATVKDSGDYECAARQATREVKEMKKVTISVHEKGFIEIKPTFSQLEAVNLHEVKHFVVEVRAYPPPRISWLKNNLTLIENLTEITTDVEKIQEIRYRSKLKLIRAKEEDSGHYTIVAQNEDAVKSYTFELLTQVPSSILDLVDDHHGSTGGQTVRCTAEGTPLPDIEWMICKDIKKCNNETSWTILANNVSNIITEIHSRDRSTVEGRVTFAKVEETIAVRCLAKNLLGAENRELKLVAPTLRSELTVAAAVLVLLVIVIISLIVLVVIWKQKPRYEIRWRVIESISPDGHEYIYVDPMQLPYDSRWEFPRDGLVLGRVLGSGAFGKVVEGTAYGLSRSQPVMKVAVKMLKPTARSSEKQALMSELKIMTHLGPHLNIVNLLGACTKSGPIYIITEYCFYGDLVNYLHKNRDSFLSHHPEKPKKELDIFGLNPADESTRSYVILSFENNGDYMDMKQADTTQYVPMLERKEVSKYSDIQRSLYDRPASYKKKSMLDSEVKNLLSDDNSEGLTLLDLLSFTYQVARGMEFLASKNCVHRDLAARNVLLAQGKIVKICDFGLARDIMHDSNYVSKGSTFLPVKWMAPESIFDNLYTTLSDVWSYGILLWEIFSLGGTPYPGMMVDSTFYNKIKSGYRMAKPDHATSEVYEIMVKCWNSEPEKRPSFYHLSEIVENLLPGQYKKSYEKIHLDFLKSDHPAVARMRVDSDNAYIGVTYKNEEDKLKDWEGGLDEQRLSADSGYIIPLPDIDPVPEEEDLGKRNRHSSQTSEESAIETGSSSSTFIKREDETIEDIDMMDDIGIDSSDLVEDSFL
Protocol: (§5) The purpose of this experiment was to test the inhibitory activity of the compound of the invention for in vitro kinase with the isotope labeling method (the γ phosphate group on ATP was labeled). In this experiment, the in vitro activity inhibition of such kinases as FLT3, VEGFR2, FLT1, FLT4, RET, c-RAF, B-RAF, c-KIT, PDGFα, PDGFβ, FGFR2, FGFR1, EphA2, EphB2, SRC, ABL, ALK and Met was tested respectively. Staurosporine was reference molecule (or referred to as positive control). The kinase inhibition activity of the test compound was expressed by half-inhibitory concentration (IC50) or the kinase activity inhibition rate of the test compound at a concentration of 10 μM. The IC50 value could be obtained by calculating the kinase activity inhibition rate of the test compound at different concentrations.
(§6) 20 mM 3-(N-morpholinyl)propanesulfonic acid (MOPS); 1 mM ethylenediaminetetraacetic acid (EDTA), 0.01% Brij 35 (Brij-35), 5% glycerol, 0.1% mercaptoethanol, 1 mg/mL bovine serum albumin (BSA), 10 mM manganous dichloride solution (MnCl2), 0.1 mg/mL glutamic acid/tyrosine (4:1) polypeptide (poly(Glu, Tyr)4:1), 50 μM EAIYAAPFAKKK (substrate of FLT3), 0.33 mg/mL myelin basic protein (substrate of VEGFR2), 250 μM KKKSPGEYVNIEFG (substrate of FLT1(h)), 500 μM GGEEEEYFELVKKKK (substrate of FLT4(h)), 250 μM KKKSPGEYVNIEFG (substrate of RET), 0.66 mg/mL myelin basic protein (substrate of C-RAF), 250 μM GGMEDIYFEFMGGKKK (substrate of c-Kit), 250 μM GGMEDIYFEFMGGKKK (substrate of PDGFα), 250 μM KKKSPGEYVNIEFG (substrate of FGFR1), […] GGEEEEYFELVKKKK (substrate of SRC), 50 μM EAIYAAPFAKKK (substrate of ABL), 250 μM KKKSPGEYVNIEFG (substrate of ALK), 250 μM KKKSPGEYVNIEFG (substrate of Met(h)), 10 mM magnesium acetate and γ-^33 P-ATP solution, stop buffer (3% phosphate buffer), washing buffer (75 mM phosphate solution), methanol, Filtermat A membrane, FLT3, VEGFR2, FLT3, VEGFR2, FLT1, FLT4, RET, c-RAF, B-RAF, c-KIT, PDGFRα, PDGFRβ, FGFR2, FGFR1, EphA2, EphB2, SRC, ABL, ALK, Met and other kinases, and the test compounds.
(§7) Buffers (8 mM MOPS with pH value of 7.0, 0.2 mM EDTA and 10 mM MnCl2), (5-10 mU) kinases to be tested (FLT3, VEGFR2, FLT1, FLT4, RET, c-RAF, B-RAF, c-KIT, PDGFRα, PDGFRβ, FGFR2, FGFR1, EphA2, EphB2, SRC, ABL, ALK and Met), substrates of kinases to be tested (refer to experimental materials), 10 mM magnesium acetate and γ-^33 P-ATP solution, and test compounds at different concentrations were added to a reaction tube orderly. […] Reaction was terminated with 5 μL 3% phosphate buffer finally, and 10 μL reaction solution was titrated to the Filtermat A membrane; solution was washed for 3 times with 75 mM phosphate solution with each time lasting 5 minutes, and then washed once with methanol. Finally, the Filtermat A membrane was dried, and scintillation counting was performed on the membrane, with scintillation count reflecting the phosphorylation degree of the substrates, so that the activity inhibition of kinase could be characterized.

[5] = test system: human gastric carcinoma cell line MKN-45; experiment: In vitro tumor cell proliferation inhibition (MTT): MKN-45; assay type: cell-based
Description: as §1, §2, §3, §4

Abl/Abl (T315I)(h) = experiment: Kinase inhibition activity test, isotope labeling: Abl; assay type: biochemical, human; details: test compound at a concentration of 10 μM
Protocol: as §5, §6, §7

Compound | IC50 ([1]; Homo sapiens, K562, 72 hours) | IC50 ([2]; Homo sapiens, HeLa) | IC50 ([3]; Homo sapiens, MV4-11, 72 h) | IC50 ([4]; Homo sapiens, 72 h) | inhibition at 10 µM (PDGFRα) | IC50 ([5]; Homo sapiens, MKN-45, 72 hours) | Activity inhibition rate Abl/Abl (T315I)(h) (Abl/Abl (T315I)(h)) | IC50 ([1]; 72 hours) | IC50 [2] | IC50 ([3]; 72 hours) | IC50 ([4]; 72 hours) | IC50 (PDGFRα) | Activity inhibition rate PDGFRα (h) (PDGFRα) | IC50 ([5]; 72 hours)
O=C(Nc1ccc(Oc2ncnc3[nH]ncc23)cc1)Nc1ccc(C(F)(F)F)cc1 [4a-1] | < 50000 nM | < 50000 nM | 5 nM | < 50000 nM | 63% | < 50000 nM | 17% |  |  |  |  |  |  | 
O=C(Nc1ccc(Oc2ncnc3[nH]ncc23)cc1)Nc1ccc(Cl)c(C(F)(F)F)c1 [4a-2] |  |  |  |  |  |  | 86% | < 50000 nM | < 50000 nM | 3 nM | 3420 nM | 223 nM | 93% | 8240 nM
O=C(Nc1ccc(Oc2ncnc3[nH]ncc23)cc1)Nc1cccc(C(F)(F)F)c1 [4a-6] | < 50000 nM | < 50000 nM | 4 nM | 312 nM | 97% | 9710 nM | 79% |  |  |  |  | 322 nM |  | 
O=C(Nc1ccc(C(F)(F)F)cc1)Nc1ccc(Oc2ncnc3[nH]ncc23)c(F)c1 [4a-9, 1-(4-((1H-pyrazolopyrimidine-4-yl)oxy)-3-fluorophenyl)-3-(4-(trifluoromethyl)phenyl)urea] |  |  |  |  |  |  | 15% | 2700 nM | 4980 nM | 43 nM | 1630 nM |  | 24% | 7630 nM
O=C(Nc1ccc(Oc2ncnc3[nH]ncc23)cc1)Nc1ccc(C(F)(F)F)cc1Cl [4a-13] |  |  |  |  |  |  | 27% | < 50000 nM | < 50000 nM | 18 nM | 3000 to 10000 nM |  | 63% | 6680 nM
CC(C)(C)c1cc(NC(=O)Nc2ccc(Oc3ncnc4[nH]ncc34)cc2)n(-c2ccccc2)n1 [4a-24] |  |  |  |  |  |  | >50% | < 50000 nM | 5510 nM | 0.4 nM | 1550 nM |  | >50% | 2840 nM
CC(C)(C)c1cc(NC(=O)Nc2ccc(Oc3ncnc4[nH]ncc34)cc2)on1 [4a-25] |  |  |  |  |  |  | >50% | 3000 to 10000 nM | 3000 to 10000 nM | 0.3 nM | 1020 nM | 1400 nM | >50% | 1300 nM
CC(C)(C)c1cc(NC(=O)Nc2ccc(Oc3ncnc4[nH]ncc34)cc2)no1 [4a-26] | 3000 to 10000 nM | 3000 to 10000 nM | 0.3 nM | 2120 nM | > 50% | 1120 nM | >50% |  |  |  |  |  |  | 
O=C(Nc1ccc(Oc2ncnc3[nH]ncc23)cc1)Nc1cc(C(F)(F)F)on1 [4a-28] | 3000 to 10000 nM | < 50000 nM | 1.2 nM | 3000 to 10000 nM | > 50% | 3000 to 10000 nM | >50% |  |  |  |  |  |  | 
CC(C)(C)c1cc(NC(=O)Nc2ccc(Oc3ncnc4[nH]ncc34)c(F)c2)no1 [4a-31] |  |  |  |  |  |  | >50% | 3000 to 10000 nM | 3000 to 10000 nM | 0.4 nM | 943 nM | < 10000 nM | >50% | < 50000 nM
O=C(Nc1ccc(Sc2ncnc3[nH]ncc23)cc1)Nc1cccc(C(F)(F)F)c1 [4c-2] |  |  |  |  |  |  | >30% |  |  | 39 nM | 7890 nM |  | >50% | 8710 nM
CC(C)(C)c1cc(NC(=O)Nc2ccc(Sc3ncnc4[nH]ncc34)cc2)no1 [4c-3, 1-(4-(1H-pyrazolopyrimidine-4-sulfydryl)phenyl)-3-(5-tert-butylisoxazol-3-yl)urea] |  |  |  |  |  |  | >30% | < 50000 nM | < 50000 nM | < 1000 nM | 3000 to 10000 nM |  | >50% | 3000 to 10000 nM
CC(C)n1ncc2c(Oc3ccc(NC(=O)Nc4cc(C(C)(C)C)on4)cc3)ncnc21 [5a-4, 1-(5-tert-butylisoxazol-3-yl)-3-(4-(1-isopropyl-(1H-pyrazolopyrimidine-4-yl)oxy)phenyl)urea] | < 50000 nM |  | < 1000 nM | 9890 nM | > 30% | < 50000 nM |  |  |  |  |  |  |  | 
